Source: the NIST ThermoML archive (doi:10.1021/je0340755)

Assay: xn = mol fraction of the nth substance listed
Settings: 101.3 kPa, Liquid; for viscosity: Capillary tube (Ostwald / Ubbelohde) method

CC(O)CO (centres undefined) [1,2-propanediol] + O
Settings | mass density [kg/m3] | speed of sound [m/s] | viscosity [mPa·s]
298.15 K, x2 = 0.044 | 1033.39 | 1511.4 | 41.25
298.15 K, x2 = 0.0987 | 1034.15 | 1518.3 | 38.41
298.15 K, x2 = 0.1484 | 1034.84 | 1523 | 35.74
298.15 K, x2 = 0.2498 | 1036.3 | 1531.6 | 30.2
298.15 K, x2 = 0.3494 | 1037.8 | 1551.3 | 24.83
298.15 K, x2 = 0.4494 | 1039.24 | 1581.6 | 19.71
298.15 K, x2 = 0.5029 | 1039.87 | 1602.9 | 17.14
298.15 K, x2 = 0.5499 | 1040.27 | 1622.2 | 15
298.15 K, x2 = 0.5597 | 1040.33 | 1626.9 | 14.56
298.15 K, x2 = 0.6501 | 1040.2 | 1660.5 | 10.84
298.15 K, x2 = 0.7499 | 1037.73 | 1687.6 | 7.287
298.15 K, x2 = 0.85 | 1030.31 | 1676.8 | 4.325
298.15 K, x2 = 0.9003 | 1023.26 | 1642.7 | 3.049
298.15 K, x2 = 0.9115 | 1021.26 | 1632.5 | 2.782
298.15 K, x2 = 0.9154 | 1020.51 | 1627.5 | 2.692
298.15 K, x2 = 0.927 | 1018.16 | 1614.3 | 2.425
298.15 K, x2 = 0.9367 | 1016.02 | 1602.1 | 2.208
298.15 K, x2 = 0.9504 | 1012.69 | 1582.9 | 1.907
298.15 K, x2 = 0.9551 | 1011.46 | 1577.5 | 1.806
298.15 K, x2 = 0.96 | 1010.13 | 1570.2 | 1.701
298.15 K, x2 = 0.9696 | 1007.36 | 1554.1 | 1.501
298.15 K, x2 = 0.9797 | 1004.21 | 1535.9 | 1.294
298.15 K, x2 = 0.9902 | 1000.65 | 1518 | 1.083
298.15 K, x2 = 0.9923 | 999.9 | 1513.6 | 1.041
298.15 K, x2 = 0.9948 | 998.99 | 1508.4 | 0.992
308.15 K, x2 = 0.044 | 1026.01 | 1502.9 | 23.03
308.15 K, x2 = 0.0987 | 1026.76 | 1509.5 | 21.43
308.15 K, x2 = 0.1484 | 1027.45 | 1513.1 | 19.93
308.15 K, x2 = 0.2498 | 1028.92 | 1524.5 | 16.8
308.15 K, x2 = 0.3494 | 1030.43 | 1541.8 | 13.77
308.15 K, x2 = 0.4494 | 1031.91 | 1565.2 | 10.9
308.15 K, x2 = 0.5029 | 1032.59 | 1581.4 | 9.465
308.15 K, x2 = 0.5499 | 1033.05 | 1598.4 | 8.274
308.15 K, x2 = 0.5597 | 1033.12 | 1602.2 | 8.034
308.15 K, x2 = 0.6501 | 1033.19 | 1640 | 5.979
308.15 K, x2 = 0.7499 | 1031.14 | 1672.3 | 4.049
308.15 K, x2 = 0.85 | 1024.53 | 1660.9 | 2.473
308.15 K, x2 = 0.9003 | 1018.14 | 1628.3 | 1.81
308.15 K, x2 = 0.9115 | 1016.3 | 1618.4 | 1.673
308.15 K, x2 = 0.9154 | 1015.63 | 1614.8 | 1.626
308.15 K, x2 = 0.927 | 1013.47 | 1603.4 | 1.491
308.15 K, x2 = 0.9367 | 1011.51 | 1593.2 | 1.379
308.15 K, x2 = 0.9504 | 1008.45 | 1578 | 1.227
308.15 K, x2 = 0.9551 | 1007.32 | 1572.6 | 1.177
308.15 K, x2 = 0.96 | 1006.1 | 1566.9 | 1.124
308.15 K, x2 = 0.9696 | 1003.55 | 1555.5 | 1.023
308.15 K, x2 = 0.9797 | 1000.65 | 1543.3 | 0.919
308.15 K, x2 = 0.9902 | 997.36 | 1530.7 | 0.815
308.15 K, x2 = 0.9923 | 996.67 | 1528.2 | 0.794
308.15 K, x2 = 0.9948 | 995.83 | 1525.2 | 0.769
318.15 K, x2 = 0.044 | 1017.94 | 1451.7 | –
318.15 K, x2 = 0.0987 | 1018.71 | 1458.8 | –
318.15 K, x2 = 0.1484 | 1019.41 | 1463.2 | –
318.15 K, x2 = 0.2498 | 1020.89 | 1476.1 | –
318.15 K, x2 = 0.3494 | 1022.37 | 1495.1 | –
318.15 K, x2 = 0.4494 | 1023.79 | 1520.3 | –
318.15 K, x2 = 0.5029 | 1024.44 | 1537.6 | 5.202
318.15 K, x2 = 0.5499 | 1024.88 | 1555.5 | 4.639
318.15 K, x2 = 0.5597 | 1024.96 | 1559.6 | 4.528
318.15 K, x2 = 0.6501 | 1025.1 | 1599.9 | 3.576
318.15 K, x2 = 0.7499 | 1023.4 | 1637.6 | 2.675
318.15 K, x2 = 0.85 | 1017.63 | 1637.9 | 1.864
318.15 K, x2 = 0.9003 | 1011.96 | 1615 | 1.462
318.15 K, x2 = 0.9115 | 1010.33 | 1607.7 | 1.37
318.15 K, x2 = 0.9154 | 1009.72 | 1605 | 1.338
318.15 K, x2 = 0.927 | 1007.79 | 1596.5 | 1.242
318.15 K, x2 = 0.9367 | 1006.03 | 1589 | 1.16
318.15 K, x2 = 0.9504 | 1003.28 | 1577.7 | 1.043
318.15 K, x2 = 0.9551 | 1002.26 | 1573.6 | 1.003
318.15 K, x2 = 0.96 | 1001.16 | 1569.4 | 0.96
318.15 K, x2 = 0.9696 | 998.86 | 1561 | 0.876
318.15 K, x2 = 0.9797 | 996.22 | 1552.2 | 0.784
318.15 K, x2 = 0.9902 | 993.24 | 1543.1 | 0.688
318.15 K, x2 = 0.9923 | 992.61 | 1541.4 | 0.668
318.15 K, x2 = 0.9948 | 991.85 | 1539.3 | 0.645
328.15 K, x2 = 0.044 | 1010.15 | 1414.3 | 9.223
328.15 K, x2 = 0.0987 | 1010.89 | 1421.8 | 8.612
328.15 K, x2 = 0.1484 | 1011.57 | 1426.6 | 8.046
328.15 K, x2 = 0.2498 | 1012.99 | 1440.5 | 6.905
328.15 K, x2 = 0.3494 | 1014.43 | 1460.2 | 5.842
328.15 K, x2 = 0.4494 | 1015.82 | 1486.4 | 4.844
328.15 K, x2 = 0.5029 | 1016.47 | 1504.2 | 4.335
328.15 K, x2 = 0.5499 | 1016.94 | 1522.6 | 3.901
328.15 K, x2 = 0.5597 | 1017.01 | 1526.7 | 3.811
328.15 K, x2 = 0.6501 | 1017.26 | 1568.3 | 3.002
328.15 K, x2 = 0.7499 | 1015.84 | 1609.2 | 2.147
328.15 K, x2 = 0.85 | 1010.71 | 1617.9 | 1.36
328.15 K, x2 = 0.9003 | 1005.57 | 1602.5 | 1.012
328.15 K, x2 = 0.9115 | 1004.09 | 1597.2 | 0.942
328.15 K, x2 = 0.9154 | 1003.54 | 1595.2 | 0.917
328.15 K, x2 = 0.927 | 1001.78 | 1589 | 0.848
328.15 K, x2 = 0.9367 | 1000.17 | 1583.4 | 0.793
328.15 K, x2 = 0.9504 | 997.67 | 1575.1 | 0.72
328.15 K, x2 = 0.9551 | 996.73 | 1572.2 | 0.695
328.15 K, x2 = 0.96 | 995.72 | 1569.1 | 0.672
328.15 K, x2 = 0.9696 | 993.62 | 1563.1 | 0.627
328.15 K, x2 = 0.9797 | 991.21 | 1556.8 | 0.582
328.15 K, x2 = 0.9902 | 988.47 | 1550.5 | 0.539
328.15 K, x2 = 0.9923 | 987.9 | 1549.3 | 0.531
328.15 K, x2 = 0.9948 | 987.19 | 1547.8 | 0.521
338.15 K, x2 = 0.044 | 1002.38 | 1395.8 | 6.72
338.15 K, x2 = 0.0987 | 1003.08 | 1403.2 | 6.302
338.15 K, x2 = 0.1484 | 1003.72 | 1408.2 | 5.915
338.15 K, x2 = 0.2498 | 1005.08 | 1422.2 | 5.133
338.15 K, x2 = 0.3494 | 1006.46 | 1441.9 | 4.398
338.15 K, x2 = 0.4494 | 1007.81 | 1468 | 3.698
338.15 K, x2 = 0.5029 | 1008.45 | 1485.6 | 3.337
338.15 K, x2 = 0.5499 | 1008.91 | 1503.8 | 3.027
338.15 K, x2 = 0.5597 | 1008.99 | 1507.9 | 2.961
338.15 K, x2 = 0.6501 | 1009.3 | 1549 | 2.378
338.15 K, x2 = 0.7499 | 1008.09 | 1590.8 | 1.75
338.15 K, x2 = 0.85 | 1003.47 | 1604.3 | 1.156
338.15 K, x2 = 0.9003 | 998.8 | 1593.6 | 0.882
338.15 K, x2 = 0.9115 | 997.45 | 1589.7 | 0.825
338.15 K, x2 = 0.9154 | 996.94 | 1588.2 | 0.806
338.15 K, x2 = 0.927 | 995.33 | 1583.5 | 0.749
338.15 K, x2 = 0.9367 | 993.86 | 1579.2 | 0.702
338.15 K, x2 = 0.9504 | 991.56 | 1572.9 | 0.639
338.15 K, x2 = 0.9551 | 990.71 | 1570.7 | 0.618
338.15 K, x2 = 0.96 | 989.78 | 1568.4 | 0.597
338.15 K, x2 = 0.9696 | 987.84 | 1563.8 | 0.556
338.15 K, x2 = 0.9797 | 985.63 | 1559.2 | 0.515
338.15 K, x2 = 0.9902 | 983.11 | 1554.7 | 0.474
338.15 K, x2 = 0.9923 | 982.58 | 1553.9 | 0.466
338.15 K, x2 = 0.9948 | 981.93 | 1552.9 | 0.457
